Measurements: ChEMBL document CHEMBL1145498, “A systematic interaction map of validated kinase inhibitors with Ser/Thr kinases” (Proc Natl Acad Sci U S A, 2007)

What follows are compounds tested against Serine/threonine-protein kinase pim-2 (Homo sapiens, UniProt Q9P1W9).
Sequence of Serine/threonine-protein kinase pim-2 (Q9P1W9 whole entry, looked up): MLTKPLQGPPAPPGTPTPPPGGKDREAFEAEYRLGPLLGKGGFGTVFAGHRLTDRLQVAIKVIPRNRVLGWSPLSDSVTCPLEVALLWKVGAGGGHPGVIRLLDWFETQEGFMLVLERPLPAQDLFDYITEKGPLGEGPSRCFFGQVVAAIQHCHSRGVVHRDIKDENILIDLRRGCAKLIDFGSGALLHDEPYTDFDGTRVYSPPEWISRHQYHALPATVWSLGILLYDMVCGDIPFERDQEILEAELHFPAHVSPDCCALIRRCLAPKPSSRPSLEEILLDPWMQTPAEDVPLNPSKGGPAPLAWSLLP
Compound `O=C(O)c1cc(N(Cc2ccccc2O)Cc2cc(O)ccc2O)ccc1O` [LAVENDUSTIN A] has a ΔTm of 1.1 °C. `C/C(O)=C(\C#N)C(=O)Nc1cc(Br)ccc1Br` gave a ΔTm of 1.9 °C. `COc1cc(/C=C/C(=O)CC(=O)/C=C/c2ccc(O)c(OC)c2)ccc1O` [CURCUMIN] showed a ΔTm of 2.9 °C. `O=c1c(O)c(-c2ccc(O)c(O)c2)oc2cc(O)cc(O)c12` [QUERCETIN] gave a ΔTm of 8.6 °C.

Each compound was assayed against 5'-AMP-activated protein kinase catalytic subunit alpha-2 (Homo sapiens) (UniProt P54646).
Compound `O=C(O)c1cc(N(Cc2ccccc2O)Cc2cc(O)ccc2O)ccc1O` [LAVENDUSTIN A] has a ΔTm of -1.1 °C. Compound `C/C(O)=C(\C#N)C(=O)Nc1cc(Br)ccc1Br` has a ΔTm of 0.6 °C. `COc1cc(/C=C/C(=O)CC(=O)/C=C/c2ccc(O)c(OC)c2)ccc1O` [CURCUMIN] was tested, and the ΔTm was -0.1 °C. With `O=c1c(O)c(-c2ccc(O)c(O)c2)oc2cc(O)cc(O)c12` [QUERCETIN] the ΔTm was 2.3 °C.

Each compound was assayed against Serine/threonine-protein kinase 38 (Homo sapiens) (UniProt Q15208).
Sequence of Serine/threonine-protein kinase 38 (Homo sapiens) (Q15208 2-465 limits assumed): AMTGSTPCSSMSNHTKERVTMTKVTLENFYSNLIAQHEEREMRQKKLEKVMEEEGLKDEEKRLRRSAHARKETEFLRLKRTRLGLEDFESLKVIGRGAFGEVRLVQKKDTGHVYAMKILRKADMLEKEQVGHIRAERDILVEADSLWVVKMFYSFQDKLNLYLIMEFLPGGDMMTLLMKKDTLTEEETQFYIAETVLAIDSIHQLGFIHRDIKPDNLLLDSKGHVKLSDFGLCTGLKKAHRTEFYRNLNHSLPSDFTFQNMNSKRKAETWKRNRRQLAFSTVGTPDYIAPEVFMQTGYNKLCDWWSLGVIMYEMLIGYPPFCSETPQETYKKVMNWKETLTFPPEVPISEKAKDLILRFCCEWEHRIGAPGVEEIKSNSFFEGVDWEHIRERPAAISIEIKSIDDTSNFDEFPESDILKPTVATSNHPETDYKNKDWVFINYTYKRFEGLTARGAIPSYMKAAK
Work on `O=C(O)c1cc(N(Cc2ccccc2O)Cc2cc(O)ccc2O)ccc1O` [LAVENDUSTIN A] yielded a ΔTm of 0.2 °C. `C/C(O)=C(\C#N)C(=O)Nc1cc(Br)ccc1Br` was tested, and the ΔTm was -0.1 °C. `COc1cc(/C=C/C(=O)CC(=O)/C=C/c2ccc(O)c(OC)c2)ccc1O` [CURCUMIN] was tested, and the ΔTm was 2.5 °C. For `O=c1c(O)c(-c2ccc(O)c(O)c2)oc2cc(O)cc(O)c12` [QUERCETIN], the ΔTm was 3.2 °C.

These compounds were tested against Casein kinase I isoform gamma-3 (Homo sapiens) (UniProt Q9Y6M4).
Sequence of Casein kinase I isoform gamma-3 (Homo sapiens) (Q9Y6M4 whole entry, looked up, canonical isoform): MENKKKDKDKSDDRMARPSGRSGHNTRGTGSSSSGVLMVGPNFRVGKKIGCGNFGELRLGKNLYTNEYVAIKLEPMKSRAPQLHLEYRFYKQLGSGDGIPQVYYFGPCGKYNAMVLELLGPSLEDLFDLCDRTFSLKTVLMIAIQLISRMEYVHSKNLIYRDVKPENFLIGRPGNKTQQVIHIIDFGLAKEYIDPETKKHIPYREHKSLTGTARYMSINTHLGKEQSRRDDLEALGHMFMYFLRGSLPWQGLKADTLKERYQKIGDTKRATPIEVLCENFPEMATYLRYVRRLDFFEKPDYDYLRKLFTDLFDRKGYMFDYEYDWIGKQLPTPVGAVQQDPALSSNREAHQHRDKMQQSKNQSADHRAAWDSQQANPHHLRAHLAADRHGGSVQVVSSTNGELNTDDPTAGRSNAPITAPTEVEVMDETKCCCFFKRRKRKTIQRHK
Compound `O=C(O)c1cc(N(Cc2ccccc2O)Cc2cc(O)ccc2O)ccc1O` [LAVENDUSTIN A] has a ΔTm of 0.8 °C. In the case of `C/C(O)=C(\C#N)C(=O)Nc1cc(Br)ccc1Br`, the ΔTm is reported as 0.3 °C. For `COc1cc(/C=C/C(=O)CC(=O)/C=C/c2ccc(O)c(OC)c2)ccc1O` [CURCUMIN], the ΔTm was 0.3 °C. Compound `O=c1c(O)c(-c2ccc(O)c(O)c2)oc2cc(O)cc(O)c12` [QUERCETIN] has a ΔTm of 2.9 °C.

The compounds below were run against Serine/threonine-protein kinase PAK 6 (Homo sapiens) (UniProt Q9NQU5).
With `O=C(O)c1cc(N(Cc2ccccc2O)Cc2cc(O)ccc2O)ccc1O` [LAVENDUSTIN A] the ΔTm was -0.3 °C. In the case of `C/C(O)=C(\C#N)C(=O)Nc1cc(Br)ccc1Br`, the ΔTm is reported as -0.2 °C. For `COc1cc(/C=C/C(=O)CC(=O)/C=C/c2ccc(O)c(OC)c2)ccc1O` [CURCUMIN], the ΔTm was 1.6 °C. Work on `O=c1c(O)c(-c2ccc(O)c(O)c2)oc2cc(O)cc(O)c12` [QUERCETIN] yielded a ΔTm of 1.1 °C.

What follows are compounds tested against Serine/threonine-protein kinase 10 (Homo sapiens) (UniProt O94804).
Sequence of Serine/threonine-protein kinase 10 (Homo sapiens) (O94804 whole entry, looked up): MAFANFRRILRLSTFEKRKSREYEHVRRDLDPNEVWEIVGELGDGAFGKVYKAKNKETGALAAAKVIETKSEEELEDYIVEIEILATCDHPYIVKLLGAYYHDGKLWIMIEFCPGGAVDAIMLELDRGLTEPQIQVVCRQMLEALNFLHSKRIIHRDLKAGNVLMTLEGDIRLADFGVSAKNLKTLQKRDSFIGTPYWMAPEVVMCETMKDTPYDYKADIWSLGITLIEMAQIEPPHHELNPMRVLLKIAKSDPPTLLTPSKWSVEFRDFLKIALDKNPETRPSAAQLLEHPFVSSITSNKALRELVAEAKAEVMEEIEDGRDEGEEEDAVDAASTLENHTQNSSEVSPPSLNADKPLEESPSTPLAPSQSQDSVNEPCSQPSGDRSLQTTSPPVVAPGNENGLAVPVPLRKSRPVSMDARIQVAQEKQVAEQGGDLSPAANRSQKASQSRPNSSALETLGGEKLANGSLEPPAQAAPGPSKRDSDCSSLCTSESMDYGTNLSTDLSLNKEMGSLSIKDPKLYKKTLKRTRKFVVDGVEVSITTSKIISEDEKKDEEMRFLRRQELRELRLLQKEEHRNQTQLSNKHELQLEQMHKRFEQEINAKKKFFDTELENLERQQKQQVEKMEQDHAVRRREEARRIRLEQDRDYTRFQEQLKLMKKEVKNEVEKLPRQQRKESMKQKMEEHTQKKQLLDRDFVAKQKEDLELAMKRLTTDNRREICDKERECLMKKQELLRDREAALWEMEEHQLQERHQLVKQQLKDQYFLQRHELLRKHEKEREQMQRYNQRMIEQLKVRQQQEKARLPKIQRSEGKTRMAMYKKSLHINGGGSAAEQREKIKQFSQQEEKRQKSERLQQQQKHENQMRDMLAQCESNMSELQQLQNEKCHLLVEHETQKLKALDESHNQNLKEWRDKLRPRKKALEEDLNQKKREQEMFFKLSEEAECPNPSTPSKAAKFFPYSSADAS
Work on `O=C(O)c1cc(N(Cc2ccccc2O)Cc2cc(O)ccc2O)ccc1O` [LAVENDUSTIN A] yielded a ΔTm of 0.1 °C. Compound `C/C(O)=C(\C#N)C(=O)Nc1cc(Br)ccc1Br` has a ΔTm of 0.9 °C. Work on `COc1cc(/C=C/C(=O)CC(=O)/C=C/c2ccc(O)c(OC)c2)ccc1O` [CURCUMIN] yielded a ΔTm of 6.1 °C. `O=c1c(O)c(-c2ccc(O)c(O)c2)oc2cc(O)cc(O)c12` [QUERCETIN] was tested, and the ΔTm was 5.5 °C.

What follows are compounds tested against Calcium/calmodulin-dependent protein kinase kinase 2 (Homo sapiens, UniProt Q96RR4).
Sequence of Calcium/calmodulin-dependent protein kinase kinase 2 (Q96RR4 2-588 limits assumed): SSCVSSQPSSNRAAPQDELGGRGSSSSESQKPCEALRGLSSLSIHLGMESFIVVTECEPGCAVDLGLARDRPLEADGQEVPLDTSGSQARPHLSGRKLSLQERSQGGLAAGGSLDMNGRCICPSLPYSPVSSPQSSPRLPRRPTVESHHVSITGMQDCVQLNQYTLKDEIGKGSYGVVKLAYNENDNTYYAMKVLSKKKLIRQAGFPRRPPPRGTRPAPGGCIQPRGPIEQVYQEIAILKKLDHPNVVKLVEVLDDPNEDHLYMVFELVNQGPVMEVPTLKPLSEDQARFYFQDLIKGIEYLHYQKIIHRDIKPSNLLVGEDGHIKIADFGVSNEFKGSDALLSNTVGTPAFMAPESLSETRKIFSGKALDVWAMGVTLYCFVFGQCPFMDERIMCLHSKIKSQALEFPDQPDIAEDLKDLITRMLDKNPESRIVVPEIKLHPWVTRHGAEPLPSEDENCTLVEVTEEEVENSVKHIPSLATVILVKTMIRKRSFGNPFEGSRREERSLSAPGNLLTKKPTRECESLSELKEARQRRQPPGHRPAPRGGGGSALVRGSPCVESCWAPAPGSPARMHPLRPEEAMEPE
In the case of `O=C(O)c1cc(N(Cc2ccccc2O)Cc2cc(O)ccc2O)ccc1O` [LAVENDUSTIN A], the ΔTm is reported as 0.5 °C. `C/C(O)=C(\C#N)C(=O)Nc1cc(Br)ccc1Br` was tested, and the ΔTm was -0.1 °C. For `COc1cc(/C=C/C(=O)CC(=O)/C=C/c2ccc(O)c(OC)c2)ccc1O` [CURCUMIN], the ΔTm was 6.1 °C. `O=c1c(O)c(-c2ccc(O)c(O)c2)oc2cc(O)cc(O)c12` [QUERCETIN] was tested, and the ΔTm was 5.5 °C.

Each compound was assayed against T1, Serine/threonine-protein kinase VRK3 (Homo sapiens) (UniProt Q8IV63).
T1 sequence (whole entry): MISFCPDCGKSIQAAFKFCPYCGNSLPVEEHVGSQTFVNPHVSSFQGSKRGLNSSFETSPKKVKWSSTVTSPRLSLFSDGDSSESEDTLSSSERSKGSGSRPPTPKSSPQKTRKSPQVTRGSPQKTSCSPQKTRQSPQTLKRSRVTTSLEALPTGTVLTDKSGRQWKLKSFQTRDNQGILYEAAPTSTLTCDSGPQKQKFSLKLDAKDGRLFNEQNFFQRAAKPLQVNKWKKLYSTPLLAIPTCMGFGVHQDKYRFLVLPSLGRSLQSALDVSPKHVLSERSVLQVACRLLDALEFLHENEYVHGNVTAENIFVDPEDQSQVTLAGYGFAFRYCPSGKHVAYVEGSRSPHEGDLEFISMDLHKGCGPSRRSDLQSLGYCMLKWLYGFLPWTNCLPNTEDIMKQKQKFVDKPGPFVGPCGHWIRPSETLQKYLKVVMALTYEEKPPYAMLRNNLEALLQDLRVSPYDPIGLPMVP
For `O=C(O)c1cc(N(Cc2ccccc2O)Cc2cc(O)ccc2O)ccc1O` [LAVENDUSTIN A], the ΔTm was 0.7 °C. `C/C(O)=C(\C#N)C(=O)Nc1cc(Br)ccc1Br` showed a ΔTm of -0.3 °C. In the case of `COc1cc(/C=C/C(=O)CC(=O)/C=C/c2ccc(O)c(OC)c2)ccc1O` [CURCUMIN], the ΔTm is reported as 1.3 °C. For `O=c1c(O)c(-c2ccc(O)c(O)c2)oc2cc(O)cc(O)c12` [QUERCETIN], the ΔTm was -0.2 °C.

Each compound was assayed against cAMP-dependent protein kinase catalytic subunit alpha (Homo sapiens) (UniProt P17612).
`O=C(O)c1cc(N(Cc2ccccc2O)Cc2cc(O)ccc2O)ccc1O` [LAVENDUSTIN A] was tested, and the ΔTm was 1.2 °C. Compound `C/C(O)=C(\C#N)C(=O)Nc1cc(Br)ccc1Br` has a ΔTm of 1.4 °C. `COc1cc(/C=C/C(=O)CC(=O)/C=C/c2ccc(O)c(OC)c2)ccc1O` [CURCUMIN] gave a ΔTm of 3.4 °C. Work on `O=c1c(O)c(-c2ccc(O)c(O)c2)oc2cc(O)cc(O)c12` [QUERCETIN] yielded a ΔTm of 4.2 °C.

These compounds were tested against T2, Serine/threonine-protein kinase 17A (Homo sapiens) (UniProt Q9UEE5).
T2 sequence (whole entry): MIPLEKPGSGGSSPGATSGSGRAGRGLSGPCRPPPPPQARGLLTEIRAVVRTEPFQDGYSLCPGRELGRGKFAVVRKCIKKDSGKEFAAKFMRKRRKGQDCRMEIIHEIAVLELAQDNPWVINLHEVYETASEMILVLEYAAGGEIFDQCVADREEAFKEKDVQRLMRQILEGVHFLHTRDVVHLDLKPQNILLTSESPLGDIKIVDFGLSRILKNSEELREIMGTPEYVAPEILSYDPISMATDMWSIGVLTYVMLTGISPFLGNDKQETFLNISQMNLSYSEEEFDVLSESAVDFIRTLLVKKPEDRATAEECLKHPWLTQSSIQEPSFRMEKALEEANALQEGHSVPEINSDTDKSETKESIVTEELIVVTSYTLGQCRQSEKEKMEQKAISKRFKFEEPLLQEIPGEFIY
`O=C(O)c1cc(N(Cc2ccccc2O)Cc2cc(O)ccc2O)ccc1O` [LAVENDUSTIN A] was tested, and the ΔTm was 0.1 °C. `C/C(O)=C(\C#N)C(=O)Nc1cc(Br)ccc1Br` gave a ΔTm of 0.6 °C. Compound `COc1cc(/C=C/C(=O)CC(=O)/C=C/c2ccc(O)c(OC)c2)ccc1O` [CURCUMIN] has a ΔTm of 7.4 °C. With `O=c1c(O)c(-c2ccc(O)c(O)c2)oc2cc(O)cc(O)c12` [QUERCETIN] the ΔTm was 9.3 °C.

These compounds were tested against Tyrosine-protein kinase JAK1 (Homo sapiens) (UniProt P23458).
Sequence of Tyrosine-protein kinase JAK1 (Homo sapiens) (P23458 whole entry): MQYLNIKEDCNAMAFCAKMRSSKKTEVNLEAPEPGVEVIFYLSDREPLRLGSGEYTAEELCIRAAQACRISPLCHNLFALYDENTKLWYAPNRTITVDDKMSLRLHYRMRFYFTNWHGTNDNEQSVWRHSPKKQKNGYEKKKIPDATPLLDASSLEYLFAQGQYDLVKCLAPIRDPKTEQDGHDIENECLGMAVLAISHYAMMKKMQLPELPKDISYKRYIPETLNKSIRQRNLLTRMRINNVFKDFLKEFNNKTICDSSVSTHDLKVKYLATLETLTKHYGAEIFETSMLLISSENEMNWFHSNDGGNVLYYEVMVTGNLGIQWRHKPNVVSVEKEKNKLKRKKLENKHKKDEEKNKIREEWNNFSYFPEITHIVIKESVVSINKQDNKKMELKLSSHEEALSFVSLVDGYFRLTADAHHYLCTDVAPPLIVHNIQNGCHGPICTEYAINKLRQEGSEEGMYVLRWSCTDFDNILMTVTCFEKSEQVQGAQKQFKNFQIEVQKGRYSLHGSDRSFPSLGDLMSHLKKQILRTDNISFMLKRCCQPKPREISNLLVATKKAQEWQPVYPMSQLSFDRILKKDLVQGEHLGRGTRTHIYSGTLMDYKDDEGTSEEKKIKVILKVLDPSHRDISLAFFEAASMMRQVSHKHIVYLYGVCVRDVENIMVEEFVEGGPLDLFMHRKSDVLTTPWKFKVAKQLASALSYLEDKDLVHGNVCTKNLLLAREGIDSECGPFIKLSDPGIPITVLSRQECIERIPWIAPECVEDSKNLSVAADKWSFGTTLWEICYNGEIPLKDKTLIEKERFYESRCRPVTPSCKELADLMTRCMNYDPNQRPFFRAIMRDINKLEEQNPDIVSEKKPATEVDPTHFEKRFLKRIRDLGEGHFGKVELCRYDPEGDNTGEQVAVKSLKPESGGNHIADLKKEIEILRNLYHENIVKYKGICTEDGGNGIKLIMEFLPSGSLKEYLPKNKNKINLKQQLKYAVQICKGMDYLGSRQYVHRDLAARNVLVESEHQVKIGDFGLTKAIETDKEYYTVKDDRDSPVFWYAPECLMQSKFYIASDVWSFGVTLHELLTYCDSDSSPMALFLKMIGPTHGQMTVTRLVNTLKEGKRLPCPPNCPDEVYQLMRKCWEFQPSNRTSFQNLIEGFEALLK
Work on `O=C(O)c1cc(N(Cc2ccccc2O)Cc2cc(O)ccc2O)ccc1O` [LAVENDUSTIN A] yielded a ΔTm of 0.4 °C. `C/C(O)=C(\C#N)C(=O)Nc1cc(Br)ccc1Br` gave a ΔTm of 0.7 °C. `COc1cc(/C=C/C(=O)CC(=O)/C=C/c2ccc(O)c(OC)c2)ccc1O` [CURCUMIN] was tested, and the ΔTm was 4.1 °C. `O=c1c(O)c(-c2ccc(O)c(O)c2)oc2cc(O)cc(O)c12` [QUERCETIN] was tested, and the ΔTm was 8.2 °C.

The compounds below were run against Serine/threonine-protein kinase Nek6 (Homo sapiens) (UniProt Q9HC98).
With `O=C(O)c1cc(N(Cc2ccccc2O)Cc2cc(O)ccc2O)ccc1O` [LAVENDUSTIN A] the ΔTm was 0.4 °C. `C/C(O)=C(\C#N)C(=O)Nc1cc(Br)ccc1Br` was tested, and the ΔTm was -0.2 °C. With `COc1cc(/C=C/C(=O)CC(=O)/C=C/c2ccc(O)c(OC)c2)ccc1O` [CURCUMIN] the ΔTm was 0.9 °C. `O=c1c(O)c(-c2ccc(O)c(O)c2)oc2cc(O)cc(O)c12` [QUERCETIN] showed a ΔTm of 1.6 °C.

Each compound was assayed against Cyclin-dependent kinase 16 (Homo sapiens) (UniProt Q00536).
Sequence of Cyclin-dependent kinase 16 (Homo sapiens) (Q00536 whole entry): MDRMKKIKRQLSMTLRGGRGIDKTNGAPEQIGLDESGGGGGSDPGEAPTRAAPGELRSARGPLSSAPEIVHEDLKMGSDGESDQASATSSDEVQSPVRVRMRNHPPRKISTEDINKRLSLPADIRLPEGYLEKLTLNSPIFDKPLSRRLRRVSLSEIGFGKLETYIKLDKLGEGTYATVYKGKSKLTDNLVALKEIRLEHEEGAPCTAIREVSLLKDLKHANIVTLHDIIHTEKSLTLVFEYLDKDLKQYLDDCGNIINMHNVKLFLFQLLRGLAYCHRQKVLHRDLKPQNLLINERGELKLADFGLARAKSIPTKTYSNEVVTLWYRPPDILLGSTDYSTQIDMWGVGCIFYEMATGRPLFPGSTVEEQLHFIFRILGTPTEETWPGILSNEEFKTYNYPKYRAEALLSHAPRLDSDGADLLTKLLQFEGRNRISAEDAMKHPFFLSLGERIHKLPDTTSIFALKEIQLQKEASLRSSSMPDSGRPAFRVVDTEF
Work on `O=C(O)c1cc(N(Cc2ccccc2O)Cc2cc(O)ccc2O)ccc1O` [LAVENDUSTIN A] yielded a ΔTm of 0 °C. `C/C(O)=C(\C#N)C(=O)Nc1cc(Br)ccc1Br` showed a ΔTm of -1.1 °C. In the case of `COc1cc(/C=C/C(=O)CC(=O)/C=C/c2ccc(O)c(OC)c2)ccc1O` [CURCUMIN], the ΔTm is reported as 0.7 °C. With `O=c1c(O)c(-c2ccc(O)c(O)c2)oc2cc(O)cc(O)c12` [QUERCETIN] the ΔTm was 1.8 °C.

The compounds below were run against T3, Mitogen-activated protein kinase kinase kinase 5 (Homo sapiens) (UniProt Q99683).
T3 sequence (whole entry): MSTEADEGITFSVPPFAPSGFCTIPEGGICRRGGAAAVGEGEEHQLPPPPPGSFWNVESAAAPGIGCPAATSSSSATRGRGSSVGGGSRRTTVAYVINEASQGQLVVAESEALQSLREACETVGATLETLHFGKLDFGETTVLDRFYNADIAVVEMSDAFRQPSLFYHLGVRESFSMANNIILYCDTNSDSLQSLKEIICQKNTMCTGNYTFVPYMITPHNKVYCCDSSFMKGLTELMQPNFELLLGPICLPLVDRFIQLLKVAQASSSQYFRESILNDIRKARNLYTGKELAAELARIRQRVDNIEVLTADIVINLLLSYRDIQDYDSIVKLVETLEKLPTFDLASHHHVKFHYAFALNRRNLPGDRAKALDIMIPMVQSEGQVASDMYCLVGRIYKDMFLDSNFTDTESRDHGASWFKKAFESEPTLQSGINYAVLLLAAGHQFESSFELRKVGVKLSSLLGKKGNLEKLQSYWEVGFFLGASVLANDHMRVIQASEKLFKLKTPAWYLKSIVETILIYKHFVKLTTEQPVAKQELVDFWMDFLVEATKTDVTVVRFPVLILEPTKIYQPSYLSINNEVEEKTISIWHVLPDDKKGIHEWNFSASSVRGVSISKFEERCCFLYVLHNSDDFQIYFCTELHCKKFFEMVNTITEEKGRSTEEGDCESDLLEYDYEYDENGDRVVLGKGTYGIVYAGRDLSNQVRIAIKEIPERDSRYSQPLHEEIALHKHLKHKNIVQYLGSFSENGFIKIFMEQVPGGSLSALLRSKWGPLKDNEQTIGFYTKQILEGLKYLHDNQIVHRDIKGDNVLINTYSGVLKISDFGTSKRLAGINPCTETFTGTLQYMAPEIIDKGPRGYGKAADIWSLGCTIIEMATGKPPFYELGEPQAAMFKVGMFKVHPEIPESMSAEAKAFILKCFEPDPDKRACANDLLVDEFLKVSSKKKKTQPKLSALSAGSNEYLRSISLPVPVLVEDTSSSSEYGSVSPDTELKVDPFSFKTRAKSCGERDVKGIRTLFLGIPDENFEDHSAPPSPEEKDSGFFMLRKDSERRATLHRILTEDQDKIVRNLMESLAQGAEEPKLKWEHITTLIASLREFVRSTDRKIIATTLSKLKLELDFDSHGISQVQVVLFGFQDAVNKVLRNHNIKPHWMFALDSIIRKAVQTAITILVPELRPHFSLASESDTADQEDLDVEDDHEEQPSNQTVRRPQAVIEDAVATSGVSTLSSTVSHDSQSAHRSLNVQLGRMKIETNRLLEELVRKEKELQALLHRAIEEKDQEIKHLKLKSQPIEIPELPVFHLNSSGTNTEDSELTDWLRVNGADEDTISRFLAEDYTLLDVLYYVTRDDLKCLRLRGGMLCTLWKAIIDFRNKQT
For `O=C(O)c1cc(N(Cc2ccccc2O)Cc2cc(O)ccc2O)ccc1O` [LAVENDUSTIN A], the ΔTm was 0.2 °C. In the case of `C/C(O)=C(\C#N)C(=O)Nc1cc(Br)ccc1Br`, the ΔTm is reported as -0.7 °C. In the case of `COc1cc(/C=C/C(=O)CC(=O)/C=C/c2ccc(O)c(OC)c2)ccc1O` [CURCUMIN], the ΔTm is reported as 3.1 °C. `O=c1c(O)c(-c2ccc(O)c(O)c2)oc2cc(O)cc(O)c12` [QUERCETIN] showed a ΔTm of 3.4 °C.

Each compound was assayed against Serine/threonine-protein kinase 26 (Homo sapiens) (UniProt Q9P289).
Sequence of Serine/threonine-protein kinase 26 (Homo sapiens) (Q9P289 2-416 limits assumed): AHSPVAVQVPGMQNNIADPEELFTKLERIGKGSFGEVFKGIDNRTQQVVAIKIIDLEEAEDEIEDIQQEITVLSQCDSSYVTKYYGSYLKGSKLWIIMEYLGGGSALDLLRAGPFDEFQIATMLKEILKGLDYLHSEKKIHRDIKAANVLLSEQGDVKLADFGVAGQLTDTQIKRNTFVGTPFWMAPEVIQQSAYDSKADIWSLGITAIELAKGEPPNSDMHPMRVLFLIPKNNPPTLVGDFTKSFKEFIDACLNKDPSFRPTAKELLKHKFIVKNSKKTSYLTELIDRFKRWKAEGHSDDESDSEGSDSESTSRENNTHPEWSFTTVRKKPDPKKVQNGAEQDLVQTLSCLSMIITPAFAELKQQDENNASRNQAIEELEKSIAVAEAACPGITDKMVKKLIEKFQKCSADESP
`O=C(O)c1cc(N(Cc2ccccc2O)Cc2cc(O)ccc2O)ccc1O` [LAVENDUSTIN A] gave a ΔTm of 2.1 °C. `C/C(O)=C(\C#N)C(=O)Nc1cc(Br)ccc1Br` showed a ΔTm of 0.2 °C. `COc1cc(/C=C/C(=O)CC(=O)/C=C/c2ccc(O)c(OC)c2)ccc1O` [CURCUMIN] gave a ΔTm of 1.7 °C. `O=c1c(O)c(-c2ccc(O)c(O)c2)oc2cc(O)cc(O)c12` [QUERCETIN] was tested, and the ΔTm was 4.4 °C.
